From ChEMBL document CHEMBL6096675 (J Med Chem, 2025)

Key:
[1] = Plasma concentration in SCID mouse xenografted with human NCI-H838 cells at 10 mg/kg, iv measured after 48 hrs by LC-MS/MS analysis; type: ADME, organism-based
SK-MEL-28 = assay: Antiproliferative activity against human SMARCA4-wild type SK-MEL-28 cells assessed as inhibition of cell growth measured after 7 days by WST-8 assay; type: functional; conditions: SK-MEL-28, 168 h, time 7 day
[2] = Plasma stability in rat plasma assessed as half life; type: ADME, cell-free

concentration at 48 h [1]: 15 ng/mL | GI50 (SK-MEL-28): > 10 µM | half-life [2]: > 2 h
Structure (SMILES): Cc1ncsc1-c1ccc([C@H](CN2CCOCC2)NC(=O)[C@@H]2C[C@@H](O)CN2C(=O)[C@@H](n2cc([C@H]3CC[C@H](CN4CCC(c5ccc6c(c5)-n5c(nc(=O)c7c(Cl)cccc75)C65CCCCC5)CC4)CC3)nn2)C(C)(C)C)cc1
